Experimental data taken from US20040171086A1, “Selective modulation of TLR-mediated biological activity” (3M Innovative Properties Company, priority 2003, published 2004).

Each compound was assayed against T1, TLR7 (Homo sapiens, UniProt Q9NYK1) (assay: IFN-α1-luciferase reporter assay in genetically modified Namalwa cells, TLR7). Settings: 10 μM IRM, 18 hours.
T1 sequence (Q9NYK1 27-1049): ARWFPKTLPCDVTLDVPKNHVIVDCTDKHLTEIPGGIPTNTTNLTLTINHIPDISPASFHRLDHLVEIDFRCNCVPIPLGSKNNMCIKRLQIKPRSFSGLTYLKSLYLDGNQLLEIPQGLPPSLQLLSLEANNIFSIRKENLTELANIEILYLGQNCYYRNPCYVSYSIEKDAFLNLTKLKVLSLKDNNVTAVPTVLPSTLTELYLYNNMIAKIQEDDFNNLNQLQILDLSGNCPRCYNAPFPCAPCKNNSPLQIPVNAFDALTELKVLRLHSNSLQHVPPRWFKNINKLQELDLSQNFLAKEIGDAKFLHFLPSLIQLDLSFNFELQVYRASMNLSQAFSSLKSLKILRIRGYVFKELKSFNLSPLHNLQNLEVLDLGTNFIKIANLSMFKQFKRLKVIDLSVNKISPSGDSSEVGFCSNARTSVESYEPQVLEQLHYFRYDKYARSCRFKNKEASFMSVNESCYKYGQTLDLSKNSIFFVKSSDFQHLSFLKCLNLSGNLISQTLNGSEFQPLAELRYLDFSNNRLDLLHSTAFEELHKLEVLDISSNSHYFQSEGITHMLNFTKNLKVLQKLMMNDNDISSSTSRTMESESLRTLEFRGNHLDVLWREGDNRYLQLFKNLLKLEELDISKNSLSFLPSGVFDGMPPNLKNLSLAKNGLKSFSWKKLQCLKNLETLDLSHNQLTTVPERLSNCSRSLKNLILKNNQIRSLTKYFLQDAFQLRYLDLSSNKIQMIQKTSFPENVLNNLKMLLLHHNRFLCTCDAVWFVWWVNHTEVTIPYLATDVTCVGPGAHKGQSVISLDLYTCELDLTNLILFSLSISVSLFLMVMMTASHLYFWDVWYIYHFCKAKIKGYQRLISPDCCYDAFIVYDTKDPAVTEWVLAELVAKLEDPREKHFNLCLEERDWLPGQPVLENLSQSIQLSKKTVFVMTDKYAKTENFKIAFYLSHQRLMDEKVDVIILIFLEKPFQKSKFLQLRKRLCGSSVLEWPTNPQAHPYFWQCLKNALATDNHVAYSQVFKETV
Assay type: cell-based
Set-up: expressed in transfected cells; host or cells: Namalwa (ATCC CRL-1432)
Experimental: Results are shown in Table 6 and are expressed as fold induction of IFN-α1 —induced luciferase signal, again with respect to a vehicle control.
The assay identified TLR6-selective compounds (i.e., compounds that modulate TLR6-mediated activity, but not TLR7-mediated activity), TLR7-selective compounds (compounds that modulate TLR7-mediated activity, but not TLR6-mediated activity), and compounds that modulate cellular activity through both TLR6 and TLR7.
Unless otherwise indicated, all incubations were performed at 37° C. with 5% CO2 at 98% humidity.
Culture medium was prepared from complete RPMI 1640 medium (BioSource International, Inc., Camarillo, Calif.). Fetal bovine serum (Atlas Biologicals, Inc., Ft. Collins, Colo.) was added to a final concentration of 7.5% (vol/vol); L-glutamine (BioSource International, Inc.) was added to 5 mM; and sodium pyruvate (BioSource International, Inc.) was added to 1 mM.
Namalwa cells were grown by incubation in culture medium overnight. Cells were harvested by centrifugation in a tabletop centrifuge (1200 RPM for 5 minutes), and then resuspended in phosphate buffered sucrose to a concentration of 1.3×10^7 cells/mL. […]
The electroporated cells were suspended in 10 mLs of culture medium and incubated overnight. Dead cells and debris were removed after 24 hours using a MACS Dead Cell Removal kit (Miltenyi Biotec, Auburn, Calif.). Cells were resuspended in 10 mL of culture medium and incubated for an additional 24 hours.
Transfected cells were selected by adding G418 (Promega Corp., Madison, Wis.) to a final concentration of 1 mg/mL and incubating the cells for seven days.
The selected transfected cells were counted and resuspended to a concentration of 1×10^6 cell per mL in culture medium. 100 μl aliquots of cells were placed in the wells of a white-walled, white-bottomed 96-well plate (Corning, Inc., Corning, N.Y.). 1.0 μL of an IRM compound from Table 1 (prepared at 1 mM in 100% DMSO) was added to some cell aliquots so that the final concentration of IRM compound was 10 μM. As a positive control, some cell aliquots were incubated with Sendai virus instead of IRM compound. As a negative control, some cell aliquots were incubated with DMSO without IRM compound. In all cases, the cells were incubated for 18 hours.
The plates were equilibrated to room temperature before one volume of reconstituted LucLight Plus (Packard Instruments, Meriden, Conn.) was added to each aliquot of cells. Each well of the plate was read on an LJL Analyst (LJL Biosystems, Inc., Sunnyvale, Calif.) set with a 5 minute dark adapt. Results are shown in Table 6 and are expressed as fold increase of the IFN-αl—induced luciferase signal compared to a DMSO control.
With `CCOCc1nc2c(N)nc3ccccc3c2n1CC(C)C` [IRM1, 2-(ethoxymethyl)-1-(2-methylpropyl)-1H-imidazo[4,5-c]quinolin-4-amine] the “TLR7: fold increase of the IFN-α1-induced luciferase signal compared to a DMSO control” value (from here on “TLR7: fold increase”) was 2.43 fold increase.
In the case of `COCCc1nc2c(N)nc3ccccc3c2n1CCOCCN(C)C(=O)C1CCCCC1` [IRM3, N-(2-{2-[4-amino-2-(2-methoxyethyl)-1H-imidazo[4,5-c]quinolin-1-yl]ethoxy}ethyl)-N-methylcyclohexanecarboxamide], the “TLR7: fold increase” value is reported as 2.86 fold increase.
For `CCCCc1nc2c(N)nc3ccccc3c2n1CCCCCS(C)(=O)=O` [IRM6, 2-butyl-1-[5-(methylsulfonyl)pentyl]-1H-imidazo[4,5-c]quinolin-4-amine], the “TLR7: fold increase” value was 3.09 fold increase.
With `CCc1nc2c(N)nc3ccccc3c2n1CCCCNC(=O)C1CCCCC1` [IRM8, N-[4-(4-amino-2-ethyl-1H-imidazo[4,5-c]quinolin-1-yl)butyl]cyclohexanecarboxamide] the “TLR7: fold increase” value was 2.89 fold increase.
In the case of `CCc1nc2c(N)nc3ccccc3c2n1CCCCSc1cc(Cl)cc(Cl)c1` [IRM14, 1-{4-[(3,5-dichlorophenyl)thio]butyl}-2-ethyl-1H-imidazo[4,5-c]quinolin-4-amine], the “TLR7: fold increase” value is reported as 1.40 fold increase.
`CCOCc1nc2c(N)nc3c(c2n1CC(C)(C)O)CCCC3` [IRM16, 4-amino-2-ethoxymethyl-α,α-dimethyl-6,7,8,9-tetrahydro-1H-imidazo[4,5-c]quinoline-1-ethanol] was tested, and the “TLR7: fold increase” value was 2.96 fold increase.
In the case of `COCCc1nc2c(N)nc3ccccc3c2n1CCOCCNC(=O)Nc1ccccc1` [IRM19, N-(2-{2-[4-amino-2-(2-methoxyethyl)-1H-imidazo[4,5-c]quinolin-1-yl)ethoxy}ethyl)-N′-phenylurea], the “TLR7: fold increase” value is reported as 2.63 fold increase.
In the case of `CCC(C)NC(=S)NCCn1c(CCOC)nc2c(N)nc3ccccc3c21` (stereo not drawn) [IRM21, N-{2-[4-amino-2-(2-methoxyethyl)-1H-imidazo[4,5-c]quinolin-1-yl]ethyl}-N′-sec-butylthiourea], the “TLR7: fold increase” value is reported as 3.48 fold increase.
In the case of `COCCc1nc2c(N)nc3c(c2n1CC(C)(C)NS(C)(=O)=O)CCCC3` [IRM22, N-{2-[4-amino-2-(2-methoxyethyl)-6,7,8,9-tetrahydro-1H-imidazo[4,5-c]quinolin-1-yl]-1,1-dimethylethyl}methanesulfonamide], the “TLR7: fold increase” value is reported as 3.59 fold increase.
